# PubChem BioAssay AID849 (SRMLSC, 2007)
# Calls of active or inactive are those of the source. The rule behind the calls is not given here.
# Tested on: Saccharomyces cerevisiae lifespan shortening, growth inhibition
# Assay: yeast lifespan shortening compounds, dose response (AID 849);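 note: yeast growth read as optical density after two days at 30 degrees C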
row,Structure (SMILES),IC50
1,Cc1cc(/C=N/n2cnnc2)c(C)n1-c1ccc(OCc2ccc(Cl)cc2Cl)cc1,> 100 µM (inactive)
2,Clc1ccc(N=c2ssnc2Cl)cc1,25.6 µM
3,CCCCCCCCCCCCCCCC[n+]1cccc(C(=O)N(CC)CC)c1,3.69 µM
4,O=C(/C=C/c1ccccc1)c1cc(Br)ccc(=O)c1O,10.1 µM
5,CC(=O)N1N=C(c2ccc(Cl)cc2)OC1(C)C,> 100 µM (inactive)
6,CC1CCc2c(sc3nc(CN4CCOCC4)nc(Sc4ccccc4)c23)C1 (stereo not drawn),> 100 µM (inactive)
7,Cc1cc(OCc2ccc(C(=O)NN=C3CCCC3)cc2)ccc1Cl,43.6 µM
8,C=CCn1c2ccccc2c2nnc(SCN3C(=O)c4ccccc4C3=O)nc21,> 100 µM (inactive)
9,Cc1cc(C(=O)COC(=O)c2ccc[nH]c2=O)c(C)n1-c1ccc(Br)cc1,> 100 µM (inactive)
10,CC1Cc2ccccc2N1C(=O)CSC1=NCCS1 (stereo not drawn),> 100 µM (inactive)
11,O=C(Nc1ccc(Cl)cc1)ON=C1CCCC1,3.69 µM
12,Nc1ccc(SC(F)(F)F)cc1C(=O)c1ccccc1,> 100 µM (inactive)
13,NC(N)=N/N=C/c1ccc(OCc2ccc(Cl)cc2Cl)cc1,> 100 µM (inactive)
14,Cc1cc(C(=O)COC(=O)c2ccc[nH]c2=O)c(C)n1-c1ccc(F)cc1,43 µM
15,O=[N+]([O-])c1ccc(C2Oc3ccccc3C3CC(c4ccccc4)=NN32)s1 (stereo not drawn),> 100 µM (inactive)
16,Cc1cc(O)c(/C=N/Nc2cccc(Cl)c2)c(=O)o1,40.3 µM
17,Cc1cc(Cl)ccc1N=c1ssnc1Cl,> 100 µM (inactive)
18,CCn1c2ccc(C)cc2c2nc3cc(C(=O)O)ccc3nc21,9.6 µM
19,Cc1ccc(C(NC(=O)C(C)C)c2cc([N+](=O)[O-])c3cccnc3c2O)cc1 (stereo not drawn),11.4 µM
20,C/C(=N\Nc1ccc(Cl)c(Cl)c1)c1ccc(-n2ccnc2)cc1,30.1 µM

row,Structure (SMILES),IC50
1,Oc1c(CN2CCN(c3ccc(F)cc3)CC2)cc(Cl)c2cccnc12,10.2 µM
2,COc1ccc(S(=O)(=O)n2oc(=O)cc2-c2ccccc2)cc1OC,> 100 µM (inactive)
3,Nc1nonc1C(=O)NCCN=Cc1cc(Cc2ccccc2)cc(Br)c1O,> 100 µM (inactive)
4,O=C1CC(N2CCN(c3nc4ccccc4s3)CC2)C(=O)N1Cc1cccs1 (stereo not drawn),> 100 µM (inactive)
5,Cc1cccc(C(=O)O/N=C/c2c(N3CCOCC3)n(C)c3ccccc23)c1,35.3 µM
6,CN(C)CCNC=C(C(=O)Nc1ccc(Cl)cc1Cl)C(=O)Nc1ccc(Cl)cc1Cl,23.9 µM
7,O=C(COc1ccc(Cl)cc1)NC1=NN(c2ccccc2)C(=O)C1,> 100 µM (inactive)
8,O=C(Nc1nc(-c2ccccn2)cs1)c1ccc(Cl)s1,2.85 µM
9,O=C1c2cccc3c(Cl)ccc(c23)C(=O)N1O,21.7 µM
10,Oc1ccc2ccccc2c1N=Nc1ccccn1,35.2 µM
11,O=c1oc2ccccc2c(N2CCCC2)c1CN1CCCC1,> 100 µM (inactive)
12,CN1CCc2cc3c(c4c2[C@H]1[C@H](O)c1ccccc1-4)OCO3,35.4 µM
13,CCCCc1ccc(NS(=O)(=O)c2cccs2)cc1,35.3 µM
14,CS(=O)(=O)N1CCN(C(=O)c2ccccc2F)CC1,> 100 µM (inactive)
15,O=C1c2ccccc2C(=O)C1c1ccc2ccccc2n1,> 100 µM (inactive)
16,CC(Nc1ccc(Br)cn1)c1cc(Cl)ccc1O (stereo not drawn),> 100 µM (inactive)
17,O=C(O)c1cc2ccc3ccccc3c2oc1=O,20.6 µM
18,CCOc1ccc(/C=C/C(=O)c2cc(Br)ccc(=O)c2O)cc1,11.5 µM
19,CCN(CC)N=Nc1[nH]nc2nc(C)cc(C)c12,7.74 µM
20,CCCn1c(Nc2nc3ccccc3n2C)nc2ccccc21,43.3 µM

row,Structure (SMILES),IC50
1,Cn1c(SCC(=O)N/N=C/c2ccc([N+](=O)[O-])s2)nnc1-c1ccc(Cl)cc1,25.3 µM
2,CCOc1cc(/C=N/Nc2ccccc2Cl)ccc1OCC(=O)O,11.6 µM
3,c1ccc(-c2ccc(C(c3ccccc3)n3ccnc3)cc2)cc1 (stereo not drawn),1.67 µM
4,COc1ccc(-c2n[nH]c(C)c2-c2ccc(Cl)cc2)c(O)c1,33.4 µM
5,Cc1ccc(/C=C2\C(=O)NC(=S)N(c3ccccc3F)C2=O)s1,13.9 µM
6,Oc1cc(-c2ccccc2)c2ccccc2c1,26 µM
7,O=c1cnn([C@@H]2O[C@H](CO)[C@@H](O)[C@H]2O)c(=O)[nH]1,13.7 µM
8,CCOC(=O)c1cnc(-n2nc(C)cc2C)nc1NNc1cc(C)nc(-c2ccccc2)n1,> 100 µM (inactive)
9,Oc1ccc(Cl)cc1Cc1cc(Cl)ccc1O,21 µM
10,CCc1ccc(/C=C/C(=O)c2cc(Br)ccc(=O)c2O)cc1,9.89 µM
11,O=C(N/N=C\c1cccc([N+](=O)[O-])c1O)C1COc2ccccc2O1 (stereo not drawn),24.8 µM
12,Oc1c(Br)cc(Br)cc1Oc1ccc(Br)cc1Br,> 100 µM (inactive)
13,COc1ccc(OC)c(C2CC(=O)N3CN(c4cccc(Cl)c4)CSC3=C2C#N)c1 (stereo not drawn),> 100 µM (inactive)
14,Cc1ccc2nc(-c3ccc(NS(=O)(=O)c4ccc(F)c(F)c4)cc3)sc2c1,> 100 µM (inactive)
15,Cc1ccc(C(=O)Oc2ccc(Cl)c3cccnc23)cc1[N+](=O)[O-],47.4 µM
16,Cc1ccnn2cc3c(=O)n(C)c(=O)n(C)c3c12,23.2 µM
17,Cn1cccc1C(=O)NC(=O)CSc1cccc[n+]1[O-],21.8 µM
18,COc1ccc(C(=O)N/N=C/c2sc3ccccc3c2O)cc1,> 100 µM (inactive)
